Read-outs that look alike come from different tables or passages of the source.
What was measured:
[1] = doses of between 10 mg and 80 mg; previous studies; cited from earlier work
[2] = recent studies; versus omeprazole, lansoprazole and other PPIs; cited from earlier work
[3] = system: ligature of the pylorus in the rat (gastric secretions); test: model of ligature of the pylorus in the rat: volume and pH of gastric secretion; assay type: in vivo; details: for pharmacological effect 10 h after treatment administration: pylorus ligature, as compared to the control group
Protocol: In vivo Studies in Rats: Assessment of Volume and pH of Gastric Secretion. Studies conducted by the applicant in vivo in a model of ligature of the pylorus in the rat have investigated the pharmacological effects of the (−) and (+) isomers of tenatoprazole. In this well established and validated model, animals are pre-treated at different time points (10, 16 and 20 h) before ligature of the pylorus, and the volume and pH of the gastric secretions are measured 4 h after the ligature.

intragastric pH in dogs = test: antisecretory effect in dogs: intragastric pH over 24 h; assay type: in vivo; details: for % of holding time for 24 hours pH > 3 / % of holding time for 24 hours pH > 4: 10 mg/kg/day
Protocol: In vivo Studies in Dogs: Assessment of the Antisecretory Effect. Studies conducted by the applicant in vivo in dogs have investigated the antisecretory effect of the (−) isomer of tenatoprazole and the (+) isomer, by measuring the intragastric pH after treatment administration for 6 days (10 mg/kg/day). The profile of intragastric pH during a 24-hour period was recorded on the first two days of administration, on the 6th day, and two days after treatment termination. These pH values were compared to those measured at baseline, prior to treatment administration. The results corresponding to the pH>3 and pH>4 holding time for 24 h, expressed in percent, are described below: […]

CYP2C19 = CYP2C19 (Homo sapiens, UniProt P33261); test: in vitro metabolism by cytochrome: maximal rate of metabolism (Vmax); assay type: in vitro ADME; details: for Vmax (maximal rate of metabolism): in vitro
Source text: Vmax (−) is the value of Vmax of the (−) enantiomer of tenatoprazole.

[4] = system: cytochromes CYP3A4 and CYP2C19; test: cytochromes that intervene in the metabolism of tenatoprazole; assay type: in vitro ADME
Source text: Further, it has been shown that different cytochromes intervene in the metabolism of tenatoprazole.

[5] = analysis of plasma enantiomers in subjects by CYP2C19 genotype; assay type: in vivo, human; details: for enantiomer in plasma: CYP2C19*2/*2 genotype, weak activity of cytochrome CYP2C19, slow metabolisers; for enantiomer in plasma (concentration): CYP2C19*1/*1 genotype, normal activity of cytochrome CYP2C19, rapid metabolisers
Source text: More particularly, the unexpected pharmacokinetic properties of the (−) enantiomer of tenatoprazole were discovered during an extensive program of pharmacokinetic and metabolism studies in vitro and in vivo.
The homozygous subjects have a very weak metabolic activity of the cytochrome CYP2C19 which is responsible for the metabolism of tenatoprazole. […] These subjects are qualified as “slow metabolisers”.

[6] = pharmacokinetic study in Caucasian subjects, acute and repeated administration (7 days) of tenatoprazole; assay type: in vivo, human
Protocol: In order to assess the difference in pharmacokinetic characteristics between the (−) enantiomer of the invention and the (+) enantiomer, a pharamcokinetic study was conducted.
Said study was carried out in Caucasian subjects, after an acute and repeated administration (7 days) of tenatoprazole. […] In contrast, it was observed that the evolution of the plasma concentration of the (+) isomer is not linear, and thus not predictive of the efficacy and the tolerability of the drug.

[7] = elimination half-life in slow metabolisers; assay type: in vivo, human; details: slow metabolisers (deficient in CYP2C19 activity)
Protocol: In another study, it was assessed that the elimination half-life of the (−) isomer of tenatoprazole is approximately 4 times shorter than that of the (+) isomer in slow metabolisers (which are deficient in CYP2C 19 activity), as summarised in the following table: […]

[8] = system: ulcerative lesions in rats; test: onset of healing and normalisation of histological changes of ulcerative lesions in rats; assay type: in vivo
Source text: In vivo Studies in Rats: Assessment of the Onset of Healing and the Increase of Normalisation of Histological Changes of the Lesions. […] Thus, the effect observed with the (−) enantiomer of tenatoprazole appeared 1 day before those of the (+) enantiomer. […] These changes consisted in a reduction of the ultrastructural damage resulting in a complete morphological recovery of the oesophageal epithelium.

[9] = in vivo pharmacokinetic and metabolism study in dogs
[10] = mean plasma half-life at doses between 10 mg and 80 mg; assay type: in vivo; details: human, doses of between 10 mg and 80 mg
Protocol: In contrast, previous studies have shown that the racemic mixture has a mean plasma half-life of approximately 7 hours at this range of doses

[11] = 10 h after treatment administration, gastric secretions measured 4 h after the ligature
[12] = after 7 days of treatment with tenatoprazole

Sequence of CYP2C19 (P33261 whole entry): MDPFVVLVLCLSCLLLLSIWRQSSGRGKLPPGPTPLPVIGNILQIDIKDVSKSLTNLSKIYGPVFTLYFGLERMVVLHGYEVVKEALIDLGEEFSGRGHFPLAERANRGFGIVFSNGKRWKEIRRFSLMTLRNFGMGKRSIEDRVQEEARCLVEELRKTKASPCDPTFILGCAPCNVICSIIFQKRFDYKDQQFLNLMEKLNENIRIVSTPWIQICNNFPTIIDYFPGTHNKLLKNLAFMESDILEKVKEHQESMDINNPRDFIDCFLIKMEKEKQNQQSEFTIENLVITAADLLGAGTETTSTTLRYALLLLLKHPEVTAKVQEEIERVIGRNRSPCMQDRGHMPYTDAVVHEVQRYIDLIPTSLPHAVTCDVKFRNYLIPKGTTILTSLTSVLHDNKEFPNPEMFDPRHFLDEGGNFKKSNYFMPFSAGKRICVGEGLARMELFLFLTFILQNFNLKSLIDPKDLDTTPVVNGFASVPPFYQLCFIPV

COc1ccc2[nH]c([S+]([O-])Cc3ncc(C)c(OC)c3C)nc2n1 (racemic) [racemic mixture, 5-methoxy-2-[[(4-methoxy-3,5-dimethyl-2-pyridyl)methyl]sulfinyl]imidazo[4,5-b]pyridine]
mean plasma half-life [1]: approximately 7 hours | half-life in plasma compared with the other PPIs [2]: approximately seven times longer

COc1ccc2[nH]c([S@+]([O-])Cc3ncc(C)c(OC)c3C)nc2n1 (single isomer, unassigned) [(+) isomer, reference compound]
Free acid (gastric acidity, change as compared to the control group) [3, 11]: −30% | pH (change as compared to the control group) [3, 11]: +30% | pharmacological effect 10 h after treatment administration [3]: no longer significant | inhibition of gastric secretion (intragastric pH in dogs; 10 mg/kg/day for 6 days): inhibit gastric secretion | Vmax (maximal rate of metabolism) (CYP2C19): 12.63 pmol/min per pmol of cytochrome | cytochromes via which the enantiomer is metabolised [4]: mainly the CYP2C19 and, to a lesser extent, by CYP3A4 | enantiomer in plasma ([5]; listed as (+) Enantiomer): Increased | enantiomer in plasma ([5]; listed as (+) enantiomer): highly significant increase | plasma concentration versus dose [6, 12]: not linear | T1/2 (elimination half-life) [7]: 36.7 ± 4.5 h

COc1ccc2[nH]c([S+]([O-])Cc3ncc(C)c(OC)c3C)nc2n1 (single isomer, unassigned; (-)) [(−) isomer, (−)-5-methoxy-2-[[(4-methoxy-3,5-dimethyl-2-pyridyl)methyl]sulfinyl]imidazo[4,5-b]pyridine]
pharmacological effect 10 h after treatment administration [3]: remains pharmacologically active | inhibition of gastric secretion (intragastric pH in dogs; 10 mg/kg/day for 6 days): inhibit gastric secretion | time over which a significant effect is observed (intragastric pH in dogs; 10 mg/kg/day for 6 days, compared to baseline): from the first day of administration, and is maintained until two days after treatment termination | % of holding time for 24 hours pH > 3 (intragastric pH in dogs; 1st day of treatment): 73% | % of holding time for 24 hours pH > 4 (intragastric pH in dogs; 1st day of treatment): 55% | % of holding time for 24 hours pH > 3 (intragastric pH in dogs; 2nd day of treatment): 82% | % of holding time for 24 hours pH > 4 (intragastric pH in dogs; 2nd day of treatment): 75% | % of holding time for 24 hours pH > 3 (intragastric pH in dogs; 6th day of treatment): 93% | % of holding time for 24 hours pH > 4 (intragastric pH in dogs; 6th day of treatment): 75% | quality of healing (normalization of histological changes) [8]: significant increase | onset of healing of ulcerative lesions ([8]; as compared with the (+) enantiomer): significantly improved | appearance of the effect before that of the (+) enantiomer ([8]; healing of ulcerative lesions): 1 days | metabolised more slowly than the (+) enantiomer (CYP2C19; from Vmax values): approximately 7 times | Vmax (maximal rate of metabolism) (CYP2C19): 1.90 pmol/min per pmol of cytochrome | cytochromes via which the enantiomer is metabolised ([4]; human, cytochromes (CYP3A4, CYP2C19) in vitro): mainly metabolised via the cytochrome CYP3A4 | enantiomer in plasma (concentration) ([5]; listed as (−) Enantiomer): Increased | enantiomer in plasma (concentration) ([5]; listed as (−) enantiomer): higher than that of the (+) enantiomer | half-life in comparison with the (+) enantiomer [9]: significantly longer | AUC versus dose [6, 12]: linear with the dose | plasma concentration versus dose [6, 12]: linear with the dose | between-subject variability of pharmacokinetic parameters ([6]; compared to the (+) isomer): markedly lower | half-life ([7]; human, in vivo, read-out: T1/2 (elimination half-life) (converted)): 9.7 ± 0.9 h | elimination half-life shorter than that of the (+) isomer [7]: approximately 4 times | half-life [10]: 10 to 12 h

Reference: patent US7652034B2, “Enantiomer (-) of tenatoprazole and the therapeutic use thereof” (Sidem Pharma, priority 2004, dated 2010)
